Assay results reported in patent US5587473A, “7-acyl-3-(substituted carbamoyloxy) cephem compounds and process for their preparation” (Eisai Co., Ltd., priority 1990, dated 1996).
Values after ≈ are worked out from the molar mass of the structure shown.

What was measured:
[1] = test system: Haemophilus influenzae E35147; assay: MIC against Haemophilus influenzae E35147; format: cell-based; conditions: Table 4
[2] = test system: Haemophilus influenzae E35147; assay: Treatment of respiratory-infected mice, Haemophilus influenzae E35147; format: in vivo, mouse infected with Haemophilus influenzae; conditions: mouse, oral, 40 mg/kg, 1 hour after inoculation of 4.3 × 10^5 CFU/mouse; counted 24 hours after infection; limit 1.48, no colony = 1; control 5.73 ± 0.58
Method: (§1) A bacterium-containing solution was inoculated into the nasal cavity of each mouse, followed by the oral administration of a suspension of one of the compounds in a CMC-Na solution one hour later where the bacterium was Haemophilus influenzae but four hours later where the bacterium was Klebsiella pneumoniae. The number of intrapulmonary viable cells of the bacterium was counted upon an elapsed time of 24 hours after the infection. The measurement limit is represented by the following formula. Log CFU/Lung=1.48 wherein CFU is the colony forming unit. When no colony was observed, the bacterium was regarded as having been eradicated and Log CFU/Lung was calculated to be 1.

[3] = Bioavailability by oral administration in mice (urinary excretion); format: in vivo; conditions: mouse, urine, 20 mg/kg, CMC-Na suspension; for dose excreted at 6 h: collected during 6 hours, read-out: Recovery in urea
Method: Certain representative compounds according to the present invention were each suspended in a CMC-Na solution. The resulting suspension was administered orally to mice at the dosage of 20 mg/kg. Urea excreted during 6 hours after the administration was collected.

[4] = test system: Klebsiella pneumonia E02033; assay: MIC against Klebsiella pneumonia E02033; format: cell-based; conditions: Klebsiella pneumoniae, Table 3
[5] = test system: Klebsiella pneumonia E02033; assay: Treatment of respiratory-infected mice, Klebsiella pneumonia E02033; format: in vivo, mouse infected with Klebsiella pneumonia; conditions: mouse, oral, 10 mg/kg; for Intrapulmonary viable cells: 4 hours after inoculation of 1.4 × 10^3 CFU/mouse, counted 24 hours after infection, limit 1.48, no colony = 1, control 7.31 ± 0.73; for Eradication rate: inoculum 1.4 × 10^3 CFU/mouse, 24 hours after infection, control 0
Method: as §1

[6] = test system: Morganella morganii IID601; assay: MIC against Morganella morganii IID601; format: cell-based; conditions: Table 1
Escherichia coli NIHJ = assay: MIC against Escherichia coli NIHJ; format: cell-based; conditions: Table 1
[7] = test system: Klebsiella pneumoniae IID875; assay: MIC against Klebsiella pneumoniae IID875; format: cell-based; conditions: Table 1
[8] = test system: Haemophilus influenzae IID1638; assay: MIC against Haemophilus influenzae IID1638; format: cell-based; conditions: Table 1
[9] = test system: Serratia marcescens IID620; assay: MIC against Serratia marcescens IID620; format: cell-based; conditions: Table 1
[10] = test system: Staphylococcus aureus 209-P; assay: MIC against Staphylococcus aureus 209-P; format: cell-based; conditions: Table 1

## CC(=O)O/N=C(\C(=O)NC1C(=O)N2C(C(=O)OC(C)OC(=O)OC(C)C)=C(COC(=O)N(C)C)CSC12)c1csc(N)n1 (stereo not drawn) [Example 43, 1-(Isopropoxycarbonyloxy)ethyl 7β-[2-(2-aminothiazol-4-yl)-2-(Z)-acetoxyiminoacetamido]-3-N,N-dimethylcarbamoyloxymethyl-3-cephem-carboxylate]
[1]
  MIC: 0.2 µg/mL (≈ 0.311 µM)
[2]
  Intrapulmonary viable cells: 4.86 ± 0.60 Log CFU/Lung

## CO/N=C(\C(=O)NC1C(=O)N2C(C(=O)OCOC(=O)C(C)(C)C)=C(COC(=O)N(C)C)CSC12)c1csc(N)n1 (centres unmarked) [Example 24, Pivaloyloxymethyl 7-[(Z)-2-(2-aminothiazol-4-yl)-2-methoxyiminoacetamido]-3-N,N-dimethylcarbamoyloxymethyl-3-cephem-4-carboxylate]
[3]
  bioavailability at 6 h: 34%
  dose excreted at 6 h: 20%

## CC(C)(C)C(=O)OCOC(=O)C1=C(COC(N)=O)CS[C@@H]2C(NC(=O)/C(=N\O)c3csc(N)n3)C(=O)N12 (some centres unmarked) [Compound B, Pivaloyloxymethyl 7-[(Z)-2-(2-aminothiazol-4-yl)-2-hydroxyiminoacetamido]-3-carbamoyloxymethyl-3-cephem-4-carboxylate, reference compound]
[3]
  bioavailability at 6 h: 17%
  dose excreted at 6 h: 11%

## C=CC1=C(C(=O)O)N2C(=O)C(NC(=O)/C(=N\O)c3csc(N)n3)[C@H]2SC1 (some centres unmarked) [Compound F, 7-[(Z)-2-(2-aminothiazol-4-yl)-2-hydroxyiminoacetamido]-3-vinyl-3-cephem-4-carboxylic acid]
[4]
  MIC: 0.2 µg/mL (≈ 0.506 µM)
[5]
  Intrapulmonary viable cells: 6.25 ± 0.74 log CFU/lung
  Eradication rate: 0%
[1]
  MIC: 0.8 µg/mL (≈ 2.02 µM)
[2]
  Intrapulmonary viable cells: 5.16 ± 0.73 Log CFU/Lung

## 7-Amino-3-N,N-dimethylcarbamoyloxymethyl-3-cephem-4-carboxylic acid [Example 39]
[6]
  MIC: 0.05 µg/mL
Escherichia coli NIHJ
  MIC: 0.05 µg/mL
[7]
  MIC: 0.025 µg/mL
[8]
  MIC: 0.2 µg/mL
[9]
  MIC: 0.05 µg/mL
[10]
  MIC: 0.2 µg/mL

## Benzhydryl 7-formamido-3-N,N-dimethylcarbamoyloxymethyl-3-cephem-4-carboxylate [Example 38]
[6]
  MIC: 0.05 µg/mL
Escherichia coli NIHJ
  MIC: 0.025 µg/mL
[7]
  MIC: 0.025 µg/mL
[8]
  MIC: 0.2 µg/mL
[9]
  MIC: 0.05 µg/mL
[10]
  MIC: 0.1 µg/mL

## 1-(Isopropoxycarbonyloxy)ethyl 7β-[2-(2-aminothiazol-4-yl)-2-(Z)-acetoxyiminoacetamido]-3-N,N-dimethylcarbamoyloxymethyl-3-cephem-carboxylate hydrochloride [Example 40]
[6]
  MIC: 0.05 µg/mL
Escherichia coli NIHJ
  MIC: 0.05 µg/mL
[7]
  MIC: 0.05 µg/mL
[8]
  MIC: 0.2 µg/mL
[9]
  MIC: 0.1 µg/mL
[10]
  MIC: 0.2 µg/mL

## 1-(Isopropoxycarbonyloxy)ethyl 7β-[2-(2-aminothiazol-4-yl)-2-(Z)-hydroxyiminoacetamido]-3-N,N-dimethylcarbamoyloxymethyl-3-cephem-carboxylate hydrochloride [Example 41]
[6]
  MIC: 0.1 µg/mL
Escherichia coli NIHJ
  MIC: 0.2 µg/mL
[7]
  MIC: 0.2 µg/mL
[8]
  MIC: 0.2 µg/mL
[9]
  MIC: 0.1 µg/mL
[10]
  MIC: 0.2 µg/mL

## CC(C)OC(=O)OC(C)OC(=O)C1=C(COC(N)=O)CS[C@@H]2C(NC(=O)/C(=N\O)c3csc(N)n3)C(=O)N12 (some centres unmarked) [Compound C, 1-(Isopropyloxycarbonyloxy)ethyl 7-[(Z)-2-(2-aminothiazol-4-yl)-2-hydroxyiminoacetamido]-3-carbamoyloxymethyl-3-cephem-4-carboxylate, reference compound]
[1]
  MIC: 0.8 µg/mL (≈ 1.4 µM)
[3]
  bioavailability at 6 h: 7%
  dose excreted at 6 h: 4.5%
[2]
  Intrapulmonary viable cells: 5.50 ± 0.61 Log CFU/Lung

## CN(C)C(=O)OCC1=C(C(=O)OCOC(=O)C(C)(C)C)N2C(=O)C(NC(=O)/C(=N\O)c3csc(N)n3)C2SC1 (centres unmarked) [Example 14, Pivaloyloxymethyl 7-[(Z)-2-(2-aminothiazol-4-yl)-2-hydroxyiminoacetamido]-3-N,N-dimethylcarbamoyloxymethyl-3-cephem-4-carboxylate]
[3]
  bioavailability at 6 h: 38%
  dose excreted at 6 h: 18.2%

## COCC1=C(C(=O)OC(C)OC(=O)OC(C)C)N2C(=O)C(NC(=O)/C(=N\OC)c3csc(N)n3)[C@H]2SC1 (some centres unmarked) [Compound E, 1-(Isopropyloxycarbonyloxy)ethyl 7-[(Z)-2-(2-aminothiazol-4-yl)-2-methoxyiminoacetamido]-3-methoxymethyl-3-cephem-4-carboxylate]
[4]
  MIC: 0.2 µg/mL (≈ 0.359 µM)
[5]
  Intrapulmonary viable cells: 4.26 ± 0.62 log CFU/lung
  Eradication rate: 0%

## CO/N=C(\C(=O)NC1C(=O)N2C(C(=O)OCOC(=O)C(C)(C)C)=C(COC(N)=O)CS[C@H]12)c1csc(N)n1 (some centres unmarked) [Compound D, Pivaloyloxymethyl 7-[(Z)-2-(2-aminothiazol-4-yl)-2-methoxyiminoacetamido]-3-carbamoyloxymethyl-3-cephem-4-carboxylate, reference compound]
[3]
  bioavailability at 6 h: 17%
  dose excreted at 6 h: 10.4%

## CC(C)OC(=O)OC(C)OC(=O)C1=C(COC(=O)N(C)C)CSC2C(NC(=O)/C(=N\O)c3csc(N)n3)C(=O)N12 (centres unmarked) [Example 20, 1-(Isopropyloxycarbonyloxy)ethyl 7-[(Z)-2-(2-aminothiazol-4-yl)-2-hydroxyiminoacetamido]-3-N,N-dimethylcarbamoyloxymethyl-3-cephem-4-carboxylate]
[4]
  MIC: 0.1 µg/mL (≈ 0.166 µM)
[5]
  Intrapulmonary viable cells: 1.66 ± 1.02 log CFU/lung
  Eradication rate: 50%
[1]
  MIC: 0.1 µg/mL (≈ 0.166 µM)
[3]
  bioavailability at 6 h: 46%
  dose excreted at 6 h: 22%
[2]
  Intrapulmonary viable cells: 3.51 ± 0.37 Log CFU/Lung
